This note sets out measurements from patent US20230174584A1, “Antibiotic Compounds” (priority 2019, published 2023).

One series deals with NRS19. As to the kind of experiment: MIC assay, VISA and VRSA panel. The class given is cell-based, Staphylococcus aureus. Conditions: Staphylococcus aureus, NRS19. As to the method:
(§1) The antibacterial activity of the compounds was tested against a panel of bacteria, including Gram-positive bacteria (S. aureus ATCC29213, S. aureus USA300, S. aureus LIM-2, NR-45881, S. aureus HIP13419, NR-46413, E. faecium E155, E. faecium E7314, E. faecium E980, E. faecalis E1246, E. faecalis E7406 and S. pneumonia 153). The antibacterial activity of the compounds was further tested against S. aureus NY-155, NR-46236, S. aureus HIP12864, NR-46074, S. aureus 880 (BR-VRSA), NR-49120, E. faecalis E1246, E. faecalis E7604, as well as some Gram-negative bacteria (Escherichia coli and Klebsiella pneumoniae). Minimum inhibitory concentrations (MICs) in μg/mL were performed according to the CLSI guidelines. From glycerol stocks, bacterial strains were cultured on blood agar plates and incubated at 37° C. for 18 h. A single colony was transferred to tryptic soy broth (TSB) with 0.002% polysorbate 80 (p80). For the Enterococcus, VISA and VRSA strains, the cultures were grown at 37° C. until the optical density of the suspension reached a level equivalent to the 0.5 McFarland standard. The bacterial suspensions were diluted in TSB with 0.002% p80 to reach a bacterial cell density of 10^6 CFU/mL. In case of the other (vancomycin-sensitive) S. aureus strains, the direct colony suspension method was used. For these strains, after transfer of the colonies to TSB with 0.002% p80, they were immediately diluted to 10^6 CFU/mL, instead of incubated prior to this dilution. In the case of S. pneumonia, direct colony suspension was used by immediately suspending multiple colonies from fresh blood agar plates in TSB+0.002% p80 to an OD600 of 0.5 and subsequent dilution to 10^6 CFU mL^−1 in TSB+0.002% p80+5% lysed horse blood. Antibiotic dilutions for this strains were also made in TSB+0.002% p80+5% lysed horse blood. Both agar and microplates containing S. pneumonia were incubated at 37° C. with 5% CO2 for 24 h with constant shaking (600 rpm). […] The cultures were grown to exponential phase (OD600=0.5) at 37° C. […] In polypropylene 96-well microtiter plates, test compounds were added in biological triplicates and serial diluted 2-fold by transfer and mixing from one well to the next to achieve a final volume of 50 μL per well. An equal volume of bacterial suspension (10^6 CFU mL^−1) was added to the wells. The plates were sealed with breathable membranes and incubated at 37° C. for 24 h with constant shaking (600 rpm). In polypropylene microtiter plates, 100 μL of the test compounds was added to the first row in biological triplicates, and 50 μL of media was added to the other wells. The compounds were subjected to serial dilution by transfer and mixing of 50 μL from one well to the next. Subsequently, 50 μL of bacterial suspension (10^6 CFU/mL) was added to the wells. The plates were sealed with breathable membranes and incubated at 37° C. for 24 h with constant shaking (600 rpm). Positive growth control consisted of wells with bacterial suspension and without antibiotic. Negative growth control consisted of solely media without bacterial suspension or antibiotic. The MICs were determined from the median of a minimum of triplicates.

In another series the test system is NRS63SH. The experiment in a line: MIC assay, VISA and VRSA panel. The class given is cell-based, Staphylococcus aureus. Conditions: Staphylococcus aureus. The protocol:
as §1

Another series concerns VRS11b. The experiment in a line: MIC assay, VISA and VRSA panel. The class given is cell-based, Staphylococcus aureus. Conditions: Staphylococcus aureus. As to the method:
as §1

Another series deals with VRS1. The experiment in a line: MIC assay, VISA and VRSA panel. Type of series: cell-based, Staphylococcus aureus. Conditions: Staphylococcus aureus. As to the method: as §1
In another series the test system is VRS3a. As to the kind of experiment: MIC assay, VISA and VRSA panel. The class given is cell-based, Staphylococcus aureus. Conditions: Staphylococcus aureus. As to the method:
as §1

A further series deals with VRS4. The experiment in a line: MIC assay, VISA and VRSA panel. The class given is cell-based, Staphylococcus aureus. Conditions: Staphylococcus aureus. The protocol: as §1
The next series has as its system VRS8. The experiment in a line: MIC assay, VISA and VRSA panel. Type of series: cell-based, Staphylococcus aureus. Conditions: Staphylococcus aureus. The protocol:
as §1

The test system of a further series is VRS9. The experiment in a line: MIC assay, VISA and VRSA panel. Type of series: cell-based, Staphylococcus aureus. Conditions: Staphylococcus aureus. The protocol:
as §1

A further series relates to VRSA3b. The experiment in a line: MIC assay, VISA and VRSA panel. Type of series: cell-based, Staphylococcus aureus. Conditions: Staphylococcus aureus. The protocol: as §1
Series [1] can be described thus: Cytotoxicity assay for HepG2 (MTT). Type of series: cell-based, human. Conditions: human; MTT, HepG2, 24 h, 10% FBS, n = 3; read-out: AC50. The protocol: (§2) Mammalian cytotoxicity assays were performed by Cyprotex. Cytotoxicity was assessed using the MTT assay. Briefly, HepG2 human hepatocellular carcinoma cells (100 μL per well) were plated on black-walled clear-bottomed polystyrene 96-well tissue culture treated plates 24 h prior to dosing the cells. The cells were dosed with test compound (dissolved in 0.5% DMSO in growth media containing 10% FBS) at a range of concentrations (0.04 μM, 0.1 μM, 0.4 μM, 1 μM, 4 μM, 10 μM, 40 μM, 100 μM). After 23 h period the cells were loaded with the MTT dye (yellow; 3-(4,5-dimethyl-2-thiazolyl)-2,5-diphenyl-2H-tetrazolium bromide) followed by an additional 1 h incubation (resulting in a total incubation time with antibiotics of 24 h). Subsequently, the plates are dried and solubilized in DMSO followed by scanning at 570 nm using a microplate absorbance reader. Cell viability is determined by conversion of the soluble MTT to insoluble formazan (purple) by mitochondrial […] in live cells. Production of formazan indicates […]. Carbonyl cyanide 3-chlorophenylhydrazone is used as no response control and chlorpromazine is used as control known to be cytotoxic. Solvent control wells (0.5% DMSO in growth media containing 10% FBS) are then used to determine significance limits for wells that have a greater than expected fraction of low or high responders. The minimum effective concentration is determined from the lowest concentration whose mean value exceeds the significance level, provided either a clear dose-response relationship is observed, or at least two consecutive concentration points are above the significance level. AC50 values are also determined provided a clear dose-response relationship is observed. Experiment was performed in triplicates.

Series [2] relates to HepG2 human hepatocellular carcinoma cells. As to the kind of experiment: Cytotoxicity assay for HepG2 (MTT). Conditions: MTT, HepG2, 24 h, 10% FBS. Type of series: cell-based. The protocol: as §2

Converted amounts (≈) assume the structure as drawn.

The term MIC denotes the smallest concentration in the dilution series that meets the test's criterion for growth inhibition. The low end stands for greater potency, the high end for weaker potency. As usually defined, the AC50 is the concentration at which the activity in the assay is half-maximal. As to `CN[C@H](CC(C)C)C(=O)N[C@H]1C(=O)N[C@@H](CC(N)=O)C(=O)N[C@H]2C(=O)N[C@H]3C(=O)N[C@H](C(=O)N[C@H](C(=O)O)c4cc(O)cc(O)c4-c4cc3ccc4O)[C@H](O[C@H]3C[C@](C)(N)[C@@H](O)[C@H](C)O3)c3ccc(c(Cl)c3)Oc3cc2cc(c3O[C@@H]2O[C@H](CO)[C@@H](O)[C@H](O)[C@H]2O[C@H]2C[C@](C)(NCc3ccc(-c4ccc(Cl)cc4)cc3)[C@@H](O)[C@H](C)O2)Oc2ccc(cc2Cl)[C@H]1O` [Oritavancin], the MIC against NRS19 is 1 mg/L (≈ 0.558 µM); against NRS63SH, 1 mg/L (≈ 0.558 µM); in the series with VRS11b, 1 mg/L (≈ 0.558 µM); against VRS1, 1 mg/L (≈ 0.558 µM); against VRS3a it was 0.5 mg/L (≈ 0.279 µM); against VRS4 it was 1 mg/L (≈ 0.558 µM). In addition, the results for the minimum inhibitory concentration (MIC) against VRS8, against VRS9 and against VRSA3b were 1 mg/L (≈ 0.558 µM), 2 mg/L (≈ 1.12 µM) and 0.25 mg/L (≈ 0.139 µM), respectively. Also, the AC50 at 24 h in series [1] was over 100 µM. In addition, the “Direction of response (↑↓)” value in series [2] is recorded as “↓”. For the same molecule, in [2] (n = 3), the MEC came to 76.5 µM.
